Experimental data: ChEMBL document CHEMBL5385957, “Pleonotoquinones, Cytotoxic Oxepinenaphthoquinones from Pleonotoma jasminifolia” (J Nat Prod, 2024)

How the values were obtained:
[1] = system: HCT-116; assay: Cytotoxicity against human HCT-116 cells assessed as cell growth inhibition; format: functional, cell-based
[2] = system: HepG2; assay: Cytotoxicity against human HepG2 cells assessed as cell growth inhibition; format: functional, cell-based
[3] = Cytotoxicity against human MRC5 cells assessed as cell growth inhibition; format: toxicity, cell-based
[4] = Selectivity index, ratio of IC50 for human MRC5 cells to IC50 for human HCT-116 cells; format: toxicity; conditions: MRC5 cells versus HCT-116 cells, read-out: Ratio IC50
[5] = Selectivity index, ratio of IC50 for human MRC5 cells to IC50 for human HepG2 cells; format: toxicity; conditions: MRC5 cells versus HepG2 cells, read-out: Ratio IC50

| SMILES | IC50 [1] | IC50 [2] | IC50 [3] | selectivity ratio [4] | selectivity ratio [5] |
| --- | --- | --- | --- | --- | --- |
| COc1c(O)ccc2c(=O)c3cccc(C)oc=3c(=O)c12 | 2.6 µM | 1.9 µM | 8.2 µM | 3.1 | 4.1 |
| COc1ccc2c(c1OC)C(=O)c1cc(C)ccc1C2=O | > 10 µM | > 10 µM | > 10 µM | – | – |
| COc1c(O)ccc2c1C(=O)c1cc(C)ccc1C2=O | > 10 µM | > 10 µM | > 10 µM | – | – |
| COc1ccc2c(=O)c3cccc(C)oc=3c(=O)c2c1OC | 4.3 µM | 6.4 µM | > 10 µM | 2.9 | 1.9 |
| COc1cccc2c1C(=O)c1c(O)c3c(c(O)c1C2=O)C[C@@](O)(C(=O)CO)C[C@@H]3O[C@H]1C[C@H](N)[C@H](O)[C@H](C)O1 [DOXORUBICIN] | – | 0.7 µM | 3.5 µM | – | – |
